{"source": "patent US20090035306A1", "about": "(KALYPSYS, INC., priority 2006, published 2009)", "test_system": "Mice", "experiment": "In vivo GLP-1 secretion (GLP-1 protocol and GLP-1 assay)", "set-up": "species or system mouse", "details": "30 mg/kg, portal vein blood", "experimental": "Vehicle is CMC-Tween: 0.5% CMC+0.25% Tween 20 at an appropriate ml/kg. Dextrose dose per mouse=2 g dextrose/kg made from 0.5 g/ml stock dextrose solution. Compound 1 dose per mouse=30 mg/kg in CMC/Tween vehicle made from 4 mg/mL stock solution by adding 50 μL DMSO to 20 mg Compound 1, stirring to make a paste, adding 1 ml CMC/Tween with stirring, sonicating for 8 minutes on energy 05, and adjusting to 5 ml with CMC/Tween.\nMice (3 per group) were fasted at 6 am for an experiment at noon. Blood glucose was measured from tail nick blood using an Accucheck—Compact Monitoring Kit (Roche Diagnostics, Indianapolis Ind.). Baseline (time=−15 min) blood glucose concentration was determined for all mice. 2 g/kg dextrose (Hospira, Lake Forest, Ill.) was administered orally at time 0. Terminal blood samples were collected from the mice via portal vein draw (˜500 μL) into EDTA microtainer tubes at the following time points: −15, 0, 3, 6, 9, 12, 15, 20, 30 and 120 min. […] Plasma was stored in −80 C freezer to be analyzed for other chemistry measurements.\nA GLP-1(Human, Mouse, Rat) ELA kit was used (ALPCO Diagnostics, Salem, N.H., Cat # 48-GLP-1-160) was used in a 96-well plate. […] 100 μl/well stop solution was added to each well to stop reaction, optical absorbance of wells read at 490 nm, and results calculated."}
{"smiles": "O=c1c2ccccc2nc(-c2ccc(F)cc2)n1NCc1ccc(Br)cc1", "note": "[Example 1]", "values": [{"measurement": "Plasma GLP-1, Mean", "setting": "2 g/kg dextrose orally at time 0, time 20 min", "value": 9.61, "unit": "ng/mL"}, {"measurement": "Plasma GLP-1, Mean", "setting": "2 g/kg dextrose orally at time 0, time −15 min (baseline)", "value": 6.30, "unit": "ng/mL"}]}
